Literature values in PubChem BioAssay AID1259410 (Chemical Carcinogenesis Research Information System (CCRIS), 2018).

Tested on: rodent tumor promotion studies, tumor incidence
Test: CCRIS tumor promotion studies
[1] = Carcinogen: 7,12-DIMETHYLBENZ(A)ANTHRACENE, Doses [Carcinogen]: TOP, Route [Carcinogen]: DERMAL, Route [Promoter]: DERMAL, Species: MOUSE, Strain/Sex: FEMALE

In the case of O=C(OO)c1cccc(Cl)c1, the outcome [1] is given as “integumentary system (skin)”.
In the case of O=[Se](O)O, the outcome (Carcinogen: N-METHYL-N'-NITRO-N-NITROSOGUANIDINE [70-25-7], Doses [Carcinogen]: 20 MG/KG BW DAILY FOR 10 D, Doses [Promoter]: 0, 2, 4 MG/L 1 WK BEFORE MNNG (STUDY DURATION: 43 WKS), Doses [Promoter]: 0, 2, 4 MG/L 1 WK BEFORE MNNG (STUDY DURATION: 43 WKS), Route [Carcinogen]: GAVAGE?, Route [Promoter]: DRINKING WATER, Species: RAT, Strain/Sex: WISTAR/MALE) is given as “stomach: gastric cancer” and the outcome (Doses [Carcinogen]: 20 MG/KG/D FOR 10 D, Doses [Promoter]: 2, 4 MG/L WATER ONE WK BEFORE CARCINOGEN (STUDY DURATION: 43 WK), Route [Carcinogen]: GAVAGE, Route [Promoter]: DRINKING WATER, Species: RAT, Strain/Sex: WISTAR (15/GROUP)) is given as “stomach: gastric leiomyoma”.
For Oc1ccc(/C=C/c2cc(O)cc(O)c2)cc1, the outcome (Carcinogen: N-METHYL-N-NITROSOUREA, 684-93-5, Doses [Carcinogen]: 50 MG/KG ONCE AT 7 WK OF AGE, Doses [Promoter]: 100 MG/KG DAILY FOR 5 D AT 2 WK OF AGE (STUDY DURATION: 37 WK), Route [Carcinogen]: INTRAPERITONEAL, Route [Promoter]: SUBCUTANEOUS, Species: RAT, Strain/Sex: SPRAGUE-DAWLEY/FEMALE) is given as “mammary gland: adenocarcinoma”.
In the case of Oc1c(Cl)c(Cl)c(Cl)c(Cl)c1Cl, the outcome (Carcinogen: DIETHYLNITROSAMINE [55-18-5], Doses [Carcinogen]: 20 PPM IN DRINKING WATER FOR 13 WEEKS (STUDY DURATION: 42 WK), Doses [Promoter]: 300 PPM IN DIET FOR 25 WK BEGINNING 4 WK POST LAST CARCINOGEN DOSE (STUDY DURATION: 42 WK), Route [Carcinogen]: ORAL, Route [Promoter]: ORAL, Species: MOUSE, Strain/Sex: B6C3F1/MALE) is given as “liver: adenoma or carcinoma” and the outcome (Carcinogen: DIETHYLNITROSAMINE [55-18-5], Doses [Carcinogen]: 20 PPM IN DRINKING WATER FOR 13 WEEKS (STUDY DURATION: 42 WK), Doses [Promoter]: 600 PPM IN DIET FOR 25 WK BEGINNING 4 WK POST LAST CARCINOGEN DOSE (STUDY DURATION: 42 WK), Route [Carcinogen]: ORAL, Route [Promoter]: ORAL, Species: MOUSE, Strain/Sex: B6C3F1/MALE) is given as “liver: adenoma or carcinoma”.
In the case of ClC(Cl)=C(Cl)C(Cl)=C(Cl)Cl, the outcome (Carcinogen: N-ETHYL-N-HYDROXYETHYLNITROSAMINE, 13147-25-6, Doses [Carcinogen]: 0.1% IN DRINKING WATER FOR 2 WK, Doses [Promoter]: 0, 0.1% IN DIET FOR 30 WK BEGINNING POST CARCINOGEN TREATMENT (STUDY DURATION: 32 WK), Route [Carcinogen]: ORAL, Route [Promoter]: ORAL, Species: RAT, Strain/Sex: WISTAR/MALE) is listed as “kidney: renal cell tumor”.
For CC(=O)[O-].CC(=O)[O-].[OH-].[OH-].[OH-].[OH-].[Pb+2].[Pb+2].[Pb+2], the outcome (Carcinogen: N-ETHYL-N-(2-HYDROXYETHYL)NITROSAMINE, Doses [Carcinogen]: 0.1% IN DRINKING WATER FOR 1 WK, Doses [Promoter]: 0.1% IN DIET FOR 35 WK, Route [Carcinogen]: ORAL, Route [Promoter]: ORAL, Species: RAT, Strain/Sex: F344/MALE) is listed as “kidney: renal cell tumor” and the outcome (Carcinogen: N-ETHYL-N-(2-HYDROXYETHYL)NITROSAMINE, Doses [Carcinogen]: 500 PPM IN DIET FOR TWO WK, Doses [Promoter]: 1000 PPM IN DIET FOR 20 WK, Route [Carcinogen]: ORAL, Route [Promoter]: ORAL, Species: RAT, Strain/Sex: WISTAR) is listed as “kidney: adenoma, adenocarcinoma”.
For Oc1cc(Cl)c(Cl)cc1Cl, the outcome [1] is listed as “integumentary system (skin)”.
For Cc1ccc(O)c(O)c1, the outcome (Carcinogen: N-METHYL-N'-NITRO-N-NITROSOGUANIDINE, 70-25-7, Doses [Carcinogen]: 150 MG/KG IN DMSO ONCE, Doses [Promoter]: 0, 1.5% IN DIET FOR 51 WK BEGINNING 1 WK AFTER CARCINOGEN DOSE (STUDY DURATION: 52 WK), Route [Carcinogen]: GAVAGE, Route [Promoter]: ORAL, Species: RAT, Strain/Sex: F344/MALE) is listed as “forestomach: squamous cell carcinoma; glandular stomach: adenocarcinoma”.
For CCCCCCOc1cc(C)c(O)c(C)c1C, the outcome (Carcinogen: DIETHYLNITROSAMINE, 55-18-5, N-METHYL-N-NITROSOUREA, 684-93-5, N-BUTYL-N-(4-HYDROXYBUTYL)NITROSAMINE, 3817-11-6, DIMETHY, Carcinogen: DIETHYLNITROSAMINE, 55-18-5, N-METHYL-N-NITROSOUREA, 684-93-5, N-BUTYL-N-(4-HYDROXYBUTYL)NITROSAMINE, 3817-11-6, DIMETHY, Doses [Carcinogen]: 100 MG/KG BW DEN ONCE FOLLOWED BY 20 MG/KG BW MNU 4 TIMES AND 0.05% BBN IN DRINKING WATER DURING FIRST 2 WK THEN 40 MG/K, Doses [Promoter]: 0, 1% IN THE DIET FOR 24 WK BEGINNING 1 DAY POST CARCINOGEN TREATMENT (STUDY DURATION: 28 WK), Route [Carcinogen]: INTRAPERITONEAL, INTRAPERITONEAL, ORAL, SUBCUTANEOUS, ORAL, Route [Carcinogen]: INTRAPERITONEAL, INTRAPERITONEAL, ORAL, SUBCUTANEOUS, ORAL, Route [Promoter]: ORAL, Species: RAT, Strain/Sex: F344/MALE) is listed as “tongue: papilloma; forestomach: papilloma” and the outcome (Carcinogen: ETHYLNITROSOURETHANE, 614-95-9, Doses [Carcinogen]: 0.01% IN DRINKING WATER FOR 4 WK, Doses [Promoter]: 0, 0.25% IN DIET FOR 36 WK BEGINNING POST CARCINOGEN TREATMENT (STUDY DURATION: 40 WK), Route [Carcinogen]: ORAL, Route [Promoter]: ORAL, Species: RAT, Strain/Sex: F344/MALE) is listed as “forestomach: papilloma, carcinoma”.
In the case of CNc1ccccc1C(=O)O[C@@H]1[C@@H](C)[C@@]2(O)[C@@H](C=C(CO)C[C@]3(O)C(=O)C(C)=C[C@@H]23)[C@@H]2C(C)(C)[C@]12OC(C)=O, the outcome (Carcinogen: 7,12-DIMETHYLBENZ[A]ANTHRACENE, 57-97-6, Doses [Carcinogen]: 10 NMOL ONCE, Doses [Promoter]: 0, 3.3 NMOL 2/WK FOR 20 WK (STUDY DURATION: 20 WK), Route [Carcinogen]: DERMAL, Route [Promoter]: DERMAL, Species: MOUSE, Strain/Sex: SENCAR) is listed as “skin: papilloma”.
For C/C(=C\CO)CCC[C@H](C)CCC[C@H](C)CCCC(C)C, the outcome (Carcinogen: 7,12-DIMETHYLBENZ[A]ANTHRACENE, 57-97-6, Doses [Carcinogen]: 100 UG ONCE, Doses [Promoter]: 0, 100 MG 2 D/WK FOR 16 WK BEGINNING 1 WK POST CARCINOGEN DOSE (STUDY DURATION: 41 WK), Route [Carcinogen]: DERMAL, Route [Promoter]: DERMAL, Species: MOUSE, Strain/Sex: ICR/FEMALE) is given as “skin: tumor”.
In the case of CNCCC(Oc1ccc(C(F)(F)F)cc1)c1ccccc1 (configuration not stated), the outcome (Carcinogen: 7,12-DIMETHYLBENZ[A]ANTHRACENE, 57-97-6, Doses [Carcinogen]: 20 MG IN 2 ML PEANUT OIL ONCE, Doses [Promoter]: 0, 16 MG/M2 5 D/WK FOR 15 WK BEGINNING POST CARCINOGEN DOSE (STUDY DURATION: 15 WK), Route [Carcinogen]: GAVAGE, Route [Promoter]: INTRAPERITONEAL, Species: RAT, Strain/Sex: SPRAGUE-DAWLEY/FEMALE) is listed as “mammary gland: tumor” and the outcome (Carcinogen: 7,12-DIMETHYLBENZ[A]ANTHRACENE, 57-97-6, Doses [Carcinogen]: 20 MG IN 2 ML PEANUT OIL ONCE, Doses [Promoter]: 0, 40 MG/M2 5 D/WK FOR 15 WK BEGINNING POST CARCINOGEN DOSE (STUDY DURATION: 15 WK), Route [Carcinogen]: GAVAGE, Route [Promoter]: INTRAPERITONEAL, Species: RAT, Strain/Sex: SPRAGUE-DAWLEY/FEMALE) is listed as “mammary gland: tumor”.
In the case of O=CC=O, the outcome (Carcinogen: N-METHYL-N'-NITRO-N-NITROSOGUANIDINE, 70-25-7, Doses [Carcinogen]: 100 MG/L IN DRINKING WATER FOR 8 WK, Doses [Promoter]: 0, 0.5% IN DRINKING WATER BEGINNING POST LAST CARCINOGEN DOSE AND CONTINUING FOR 32 WK (STUDY DURATION: 40 WK), Route [Carcinogen]: ORAL, Route [Promoter]: ORAL, Species: RAT, Strain/Sex: WISTAR/MALE) is listed as “glandular stomach (pylorus): adenocarcinoma”.
For Oc1c(Cl)c(Cl)c(O)c(Cl)c1Cl, the outcome (Carcinogen: 7,12-Dimethylbenzanthracene, 57-97-6, Doses [Carcinogen]: 100 ug in 100 ul acetone once at 7 wks of age, Doses [Promoter]: 100, 500 ug in 100 ul acetone 1 wk after carcinogen, 2 times a wk for 20 or 30 wks, Route [Carcinogen]: Dermal, Route [Promoter]: Dermal, Species: Mouse, Strain/Sex: CD-1/Female) is given as “skin: tumors (dihydrolipoic acid significantly inhibited tumor incidence and mul”.
For C=C(C)[C@H]1CC=C(C)CC1, the outcome (Carcinogen: 7,12-DIMETHYLBENZ(A)ANTHRACENE, Doses [Carcinogen]: TOP, Route [Carcinogen]: DERMAL, Route [Promoter]: DERMAL, Species: MOUSE, Strain/Sex: MALE,FEMALE) is given as “integumentary system (skin)”, the outcome (Carcinogen: N-ETHYL-N-HYDROXYETHYLNITROSAMINE, 13147-25-6, Doses [Carcinogen]: 500 PPM IN DRINKING WATER FOR 2 WK, Doses [Promoter]: 0, 150 MG/KG/D IN CORN OIL 5 D/WK FOR 30 WK BEGINNING POST CARCINOGEN TREATMENT (STUDY DURATION: 32 WK), Route [Carcinogen]: ORAL, Route [Promoter]: GAVAGE, Species: RAT, Strain/Sex: F344/MALE) is given as “kidney: adenoma” and the outcome (Carcinogen: URETHANE, Doses [Carcinogen]: TOP, Route [Carcinogen]: DERMAL, Route [Promoter]: DERMAL, Species: MOUSE, Strain/Sex: MALE,FEMALE) is given as “integumentary system (skin)”.
